{"source": "ChEMBL document CHEMBL1201862", "about": "“PubChem BioAssay data set” (2004)", "key": {"[1]": {"experiment": "alpha-synuclein stem-loop luciferase translation blockers – H4 neuroglioma cells, luminescence, confirmation (AID 1988)", "assay_type": "functional, cell-based"}, "[2]": {"experiment": "luciferase reporter signal suppression in cells – H4 neuroglioma cells, luminescence, dose response (AID 1990)", "assay_type": "functional, cell-based"}, "[3]": {"experiment": "Luminescence Cell-Based Dose Response HTS to Identify Inhibitors of 5'UTR Stem-Loop Driven Prion Protein mRNA Translation in H4 Neuroglioblastoma Cells. [Related pubchem assays: 1827 (Project Summary), 1813 (Primary HTS)]", "assay_type": "functional"}, "[4]": {"tested_on": "HEK293", "experiment": "cells", "assay_type": "functional, cell-based", "details": "Homo sapiens"}, "[5]": {"biological_target": "Nucleotide-binding oligomerization domain-containing protein 2 (Homo sapiens, UniProt Q9HC29)", "sequence (Q9HC29 whole entry, the tested form may be a part)": "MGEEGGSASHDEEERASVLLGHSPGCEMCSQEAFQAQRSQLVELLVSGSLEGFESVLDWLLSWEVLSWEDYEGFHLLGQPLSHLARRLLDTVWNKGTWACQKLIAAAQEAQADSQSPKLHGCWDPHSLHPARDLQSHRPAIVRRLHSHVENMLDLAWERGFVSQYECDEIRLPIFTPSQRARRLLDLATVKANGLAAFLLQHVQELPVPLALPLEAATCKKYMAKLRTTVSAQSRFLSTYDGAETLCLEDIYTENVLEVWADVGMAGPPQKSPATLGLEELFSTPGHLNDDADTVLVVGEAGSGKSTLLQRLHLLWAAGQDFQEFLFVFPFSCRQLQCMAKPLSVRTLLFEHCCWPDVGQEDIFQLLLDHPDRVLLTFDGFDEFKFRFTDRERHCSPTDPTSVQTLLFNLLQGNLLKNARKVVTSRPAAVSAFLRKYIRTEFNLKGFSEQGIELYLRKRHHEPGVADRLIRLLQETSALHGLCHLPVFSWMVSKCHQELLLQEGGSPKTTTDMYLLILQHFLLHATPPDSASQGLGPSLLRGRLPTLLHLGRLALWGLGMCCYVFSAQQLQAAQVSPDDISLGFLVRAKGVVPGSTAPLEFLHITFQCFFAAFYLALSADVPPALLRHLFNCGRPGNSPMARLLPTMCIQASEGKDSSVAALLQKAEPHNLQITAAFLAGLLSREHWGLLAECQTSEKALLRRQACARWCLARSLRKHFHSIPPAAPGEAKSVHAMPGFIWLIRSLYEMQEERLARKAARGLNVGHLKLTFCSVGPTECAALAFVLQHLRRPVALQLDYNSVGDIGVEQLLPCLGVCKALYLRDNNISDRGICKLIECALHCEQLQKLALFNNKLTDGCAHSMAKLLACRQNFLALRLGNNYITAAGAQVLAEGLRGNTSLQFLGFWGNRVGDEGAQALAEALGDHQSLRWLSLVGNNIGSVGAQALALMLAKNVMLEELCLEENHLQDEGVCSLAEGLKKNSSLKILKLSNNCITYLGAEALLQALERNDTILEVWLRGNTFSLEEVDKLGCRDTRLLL", "experiment": "inhibition of NOD2-driven NF-kB reporter – cell-based, luminescence, uHTS, HEK293 (AID 1566)", "assay_type": "functional"}, "[6]": {"tested_on": "HEK293", "experiment": "NOD2 signaling inhibitors in MDP-stimulated cells, cell-based, uHTS, luminescence (AID 2001)", "assay_type": "functional", "details": "Homo sapiens"}, "[7]": {"biological_target": "DNA dC->dU-editing enzyme APOBEC-3G (Homo sapiens, UniProt Q9HC16)", "sequence (Q9HC16 whole entry)": "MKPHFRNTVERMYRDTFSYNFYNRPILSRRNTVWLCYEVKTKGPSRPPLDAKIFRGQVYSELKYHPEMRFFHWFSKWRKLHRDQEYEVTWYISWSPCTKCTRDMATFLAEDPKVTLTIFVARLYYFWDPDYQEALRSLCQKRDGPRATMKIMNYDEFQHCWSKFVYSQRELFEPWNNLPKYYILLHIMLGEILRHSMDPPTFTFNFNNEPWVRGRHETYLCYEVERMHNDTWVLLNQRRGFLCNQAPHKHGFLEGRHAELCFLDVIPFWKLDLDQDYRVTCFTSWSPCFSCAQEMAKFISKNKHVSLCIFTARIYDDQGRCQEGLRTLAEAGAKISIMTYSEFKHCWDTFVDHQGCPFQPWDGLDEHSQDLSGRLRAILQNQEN", "assay_type": "functional"}, "[8]": {"biological_target": "DNA dC->dU-editing enzyme APOBEC-3A (Homo sapiens, UniProt P31941)", "sequence (P31941 whole entry)": "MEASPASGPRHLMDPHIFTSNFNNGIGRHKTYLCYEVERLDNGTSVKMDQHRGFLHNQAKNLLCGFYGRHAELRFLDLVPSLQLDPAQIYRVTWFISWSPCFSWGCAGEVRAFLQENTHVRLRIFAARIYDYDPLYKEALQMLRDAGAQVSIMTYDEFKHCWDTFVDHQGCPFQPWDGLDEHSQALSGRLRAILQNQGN", "experiment": "Dose Response confirmation of small molecule APOBEC3A DNA Deaminase Inhibitors via a fluorescence-based single-stranded DNA deaminase assay. [Related pubchem assays (depositor defined):AID493011, AID493024]", "assay_type": "functional"}, "[9]": {"tested_on": "HEK293", "experiment": "cells", "assay_type": "functional, cell-based", "details": "Homo sapiens", "remark": "listed apart in the source"}, "[10]": {"tested_on": "HEK293", "experiment": "cells", "assay_type": "functional, cell-based", "details": "Homo sapiens", "remark": "listed apart in the source"}, "[11]": {"tested_on": "HEK293", "experiment": "inhibition of NOD1-driven NF-kB reporter – cell-based, luminescence, uHTS, primary screen (AID 1578)", "assay_type": "functional", "details": "Homo sapiens"}, "[12]": {"biological_target": "T1, Neuropeptides B/W receptor type 1 (Homo sapiens, UniProt P48145)", "T1 sequence (P48145 whole entry)": "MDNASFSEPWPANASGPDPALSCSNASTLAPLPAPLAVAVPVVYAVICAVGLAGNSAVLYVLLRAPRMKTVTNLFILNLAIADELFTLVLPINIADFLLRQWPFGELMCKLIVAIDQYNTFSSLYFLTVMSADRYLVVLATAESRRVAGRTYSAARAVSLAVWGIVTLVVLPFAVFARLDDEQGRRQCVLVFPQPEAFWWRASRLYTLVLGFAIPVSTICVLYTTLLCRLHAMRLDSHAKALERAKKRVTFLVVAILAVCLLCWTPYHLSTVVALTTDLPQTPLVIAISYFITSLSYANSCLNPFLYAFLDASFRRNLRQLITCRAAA", "experiment": "human NPBW1 receptor blockade, IC50 – cell-based, fluorescence, dose response, late-stage follow-up (AID 463251)", "assay_type": "functional"}, "[13]": {"biological_target": "T2, Melanin-concentrating hormone receptor 1 (Homo sapiens, UniProt Q99705)", "T2 sequence (Q99705 whole entry)": "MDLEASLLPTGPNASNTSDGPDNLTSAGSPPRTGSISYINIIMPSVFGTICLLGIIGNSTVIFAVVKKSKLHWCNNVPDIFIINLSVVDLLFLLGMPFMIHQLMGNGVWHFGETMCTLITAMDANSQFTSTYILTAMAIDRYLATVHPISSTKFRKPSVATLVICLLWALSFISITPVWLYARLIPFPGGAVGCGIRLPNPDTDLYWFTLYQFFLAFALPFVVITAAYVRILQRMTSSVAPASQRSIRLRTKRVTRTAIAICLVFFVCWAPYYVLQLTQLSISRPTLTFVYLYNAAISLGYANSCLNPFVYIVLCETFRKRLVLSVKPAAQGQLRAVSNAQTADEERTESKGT", "experiment": "Fluorescence-based counterscreen for antagonists of the G-protein coupled receptor 7 (GPR7): cell-based high throughput dose response assay to identify antagonists of the melanin-concentrating hormone receptor 1 (MCHR1).", "assay_type": "functional"}, "[14]": {"biological_target": "T3, Corticotropin-releasing factor receptor 2/Corticotropin-releasing factor-binding protein (Homo sapiens, UniProt P24387+Q13324)", "T3 sequence (Q13324 whole entry)": "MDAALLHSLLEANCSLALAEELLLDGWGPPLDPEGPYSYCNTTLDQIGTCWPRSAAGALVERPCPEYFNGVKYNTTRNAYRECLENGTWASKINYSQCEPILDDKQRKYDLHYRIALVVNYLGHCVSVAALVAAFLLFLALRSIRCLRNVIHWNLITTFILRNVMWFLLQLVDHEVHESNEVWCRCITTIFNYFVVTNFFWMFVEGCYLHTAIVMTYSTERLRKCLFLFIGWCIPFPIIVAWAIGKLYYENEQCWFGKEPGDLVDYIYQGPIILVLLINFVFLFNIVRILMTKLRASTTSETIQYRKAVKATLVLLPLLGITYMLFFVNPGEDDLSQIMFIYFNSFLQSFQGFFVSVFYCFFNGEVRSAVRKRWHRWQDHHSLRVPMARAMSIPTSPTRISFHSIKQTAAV", "T3 sequence (P24387 whole entry)": "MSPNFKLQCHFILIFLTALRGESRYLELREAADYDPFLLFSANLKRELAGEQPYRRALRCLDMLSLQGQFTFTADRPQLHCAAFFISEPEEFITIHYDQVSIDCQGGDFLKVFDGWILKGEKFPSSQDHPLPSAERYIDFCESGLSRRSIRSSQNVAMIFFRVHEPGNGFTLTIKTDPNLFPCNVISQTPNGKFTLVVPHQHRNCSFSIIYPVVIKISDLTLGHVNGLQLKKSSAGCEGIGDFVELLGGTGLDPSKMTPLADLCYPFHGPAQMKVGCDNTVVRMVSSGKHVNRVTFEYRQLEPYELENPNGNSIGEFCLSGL", "experiment": "activators of CRF receptor 2 with binding protein – uHTS hits, confirmation (AID 602473)", "assay_type": "functional", "details": "read-out: EC50_Mean"}, "[15]": {"biological_target": "T2, Melanin-concentrating hormone receptor 1", "experiment": "Late-stage fluorescence-based counterscreen for antagonists of the G-protein coupled receptor 7 (GPR7): cell-based dose response assay to identify antagonists of the melanin-concentrating hormone receptor 1 (MCHR1). [Related pubchem assays (depositor defined):AID1861, AID1880, AID1952, AID2148, AID2251, AID2257, AID485339]", "assay_type": "functional"}, "[16]": {"biological_target": "T1, Neuropeptides B/W receptor type 1", "experiment": "Fluorescence-based dose response cell-based high throughput screening assay to identify antagonists of the G-protein coupled receptor 7 (GPR7). [Related pubchem assays: 1952 (Screening assay (GPR7 antagonists).), 1880 (Summary AID.)]", "assay_type": "functional"}, "[17]": {"experiment": "HEK-293T viability loss after treatment – luminescence, T-cell screen hits, cytotoxicity control for TCR NF-kB inhibitor project, dose response (AID 489026);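 note: cells exposed to compound about 14 hours before the viability readout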", "assay_type": "functional, cell-based"}, "[18]": {"experiment": "Intein inhibitors as potential Tuberculosis drugs, a cytotoxicity screen. [Related pubchem assays (depositor defined):AID2221, AID2223, AID434968, AID435010, AID449749, AID449750, AID489010]", "assay_type": "functional"}, "[19]": {"biological_target": "T4, Protein RecA (Mycobacterium tuberculosis, UniProt P9WHJ3)", "T4 sequence (P9WHJ3 whole entry)": "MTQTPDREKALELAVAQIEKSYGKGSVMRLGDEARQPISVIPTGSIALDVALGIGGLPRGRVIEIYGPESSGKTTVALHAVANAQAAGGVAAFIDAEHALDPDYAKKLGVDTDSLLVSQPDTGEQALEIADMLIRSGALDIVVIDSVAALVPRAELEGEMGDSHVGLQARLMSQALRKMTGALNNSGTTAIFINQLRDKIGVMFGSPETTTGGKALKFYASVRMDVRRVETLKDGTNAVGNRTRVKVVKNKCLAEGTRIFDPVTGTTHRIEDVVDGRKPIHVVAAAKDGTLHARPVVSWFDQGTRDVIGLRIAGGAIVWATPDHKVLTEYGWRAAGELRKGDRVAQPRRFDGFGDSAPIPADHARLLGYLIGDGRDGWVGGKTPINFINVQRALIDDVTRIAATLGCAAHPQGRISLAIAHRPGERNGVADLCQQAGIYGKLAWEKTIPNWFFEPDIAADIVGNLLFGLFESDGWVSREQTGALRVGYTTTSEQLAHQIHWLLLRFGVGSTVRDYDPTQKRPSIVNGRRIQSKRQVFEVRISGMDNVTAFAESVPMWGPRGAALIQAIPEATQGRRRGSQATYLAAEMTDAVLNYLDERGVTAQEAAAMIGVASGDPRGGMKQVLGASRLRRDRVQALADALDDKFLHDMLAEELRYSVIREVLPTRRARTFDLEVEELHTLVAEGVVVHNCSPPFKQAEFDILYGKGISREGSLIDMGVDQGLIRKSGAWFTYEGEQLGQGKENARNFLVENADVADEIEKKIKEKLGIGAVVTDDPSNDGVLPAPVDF", "experiment": "Fluorescence Cell-Free Homogeneous Dose Retest to Identify Inhibitors of RecA-Intein Splicing Activity. [Related pubchem assays (depositor defined):AID2097, AID2223, AID489010, AID492950]", "assay_type": "functional"}, "[20]": {"biological_target": "T5, Replicative DNA helicase DnaB (Mycobacterium tuberculosis, UniProt P9WMR3)", "T5 sequence (P9WMR3 whole entry)": "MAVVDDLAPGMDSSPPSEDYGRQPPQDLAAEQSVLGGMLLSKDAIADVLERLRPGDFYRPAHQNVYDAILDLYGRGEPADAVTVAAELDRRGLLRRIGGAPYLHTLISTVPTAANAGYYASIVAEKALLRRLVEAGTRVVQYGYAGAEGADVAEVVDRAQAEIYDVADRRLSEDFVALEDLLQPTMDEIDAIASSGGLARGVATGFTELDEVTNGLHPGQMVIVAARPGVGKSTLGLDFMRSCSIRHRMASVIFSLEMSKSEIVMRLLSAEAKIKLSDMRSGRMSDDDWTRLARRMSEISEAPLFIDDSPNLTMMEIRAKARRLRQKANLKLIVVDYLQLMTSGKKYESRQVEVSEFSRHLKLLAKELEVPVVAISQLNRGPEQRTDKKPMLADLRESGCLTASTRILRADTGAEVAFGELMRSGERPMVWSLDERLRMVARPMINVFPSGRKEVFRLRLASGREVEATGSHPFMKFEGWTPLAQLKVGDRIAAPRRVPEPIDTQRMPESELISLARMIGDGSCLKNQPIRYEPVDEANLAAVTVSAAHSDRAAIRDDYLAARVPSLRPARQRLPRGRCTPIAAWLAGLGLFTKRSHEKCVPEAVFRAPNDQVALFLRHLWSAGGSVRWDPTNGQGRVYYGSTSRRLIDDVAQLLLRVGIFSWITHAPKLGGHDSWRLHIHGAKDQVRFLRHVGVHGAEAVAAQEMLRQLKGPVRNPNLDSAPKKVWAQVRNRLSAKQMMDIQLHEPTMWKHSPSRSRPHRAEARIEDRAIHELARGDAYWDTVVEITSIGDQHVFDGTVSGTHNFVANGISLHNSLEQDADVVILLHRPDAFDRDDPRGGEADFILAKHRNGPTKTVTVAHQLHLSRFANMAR", "experiment": "DnaB intein splicing inhibitors, dose response, biochemical, cell-free fluorescence (AID 449749)", "assay_type": "functional"}}, "note": "Activity calls are given as the source filed them.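 Throughout, for CC50: cells exposed to compound for 72 hours before luminescence readout.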", "data": [{"compound": "CCCCCCCn1ccc(=N)cc1", "values": [{"measurement": "EC50", "setting": "[1]", "result": "14.8 µM (active)"}, {"measurement": "EC50", "setting": "[2]", "result": "13 µM (active)"}, {"measurement": "EC50", "setting": "[3]", "result": "> 120 µM (not active)"}, {"measurement": "IC50", "setting": "[4]", "result": "5.72 µM (active)"}, {"measurement": "EC50", "setting": "[5]", "result": "8.15 µM (active)"}, {"measurement": "IC50", "setting": "[6]", "result": "6.34 µM (active)"}, {"measurement": "IC50", "setting": "[7]", "result": "2.51 µM (active)"}, {"measurement": "IC50", "setting": "[8]", "result": "1.83 µM (active)"}, {"measurement": "IC50", "setting": "[9]", "result": "> 20 µM (inactive)"}, {"measurement": "IC50", "setting": "[10]", "result": "18.1 µM (active)"}, {"measurement": "EC50", "setting": "[11]", "result": "6.12 µM (active)"}]}, {"compound": "COc1ccccc1-n1c(SCC(N)=O)nnc1-c1ccc(S(=O)(=O)N2CCCCC2)cc1", "values": [{"measurement": "IC50", "setting": "[12]", "result": "> 20 µM (inactive)"}, {"measurement": "IC50", "setting": "[13]", "result": "> 43.8 µM (not active)"}, {"measurement": "EC50", "setting": "[14]", "result": "12.7 µM (active)"}, {"measurement": "IC50", "setting": "[15]", "result": "> 20 µM (inactive)"}, {"measurement": "IC50", "setting": "[16]", "result": "5.36 µM (active)"}]}, {"compound": "CC(C)(C)c1csc(Sc2ccc([N+](=O)[O-])cn2)n1", "values": [{"measurement": "IC50", "setting": "[17]", "result": "> 80 µM (inactive)"}, {"measurement": "CC50", "setting": "[18]", "result": "> 40 µM (active)"}, {"measurement": "EC50", "setting": "[19]", "result": "1.75 µM (active)"}, {"measurement": "AC50", "setting": "[20]", "result": "2.54 µM (active)"}]}]}
